Measured values reported in patent US20250114486A1, “MARKED FATTY ACID DERIVATIVE, PRECURSOR COMPOUND THEREOF, AND USE THEREOF IN CONTRAST AGENT” (BEIJING NORMAL UNIVERSITY, priority 2022, published 2025).

Key:
[1] = tested on: fatty acid β-oxidation; experiment: TMZ (trimetazidine hydrochloride) blocking experiment, biodistribution in female SD rats; assay type: in vivo
Experimental: (§1) Female SD rats (180-220 g, n=3) were fasted for 12 h before the experiment, and the purified radioactive 99mTc complexes 78-81 were prepared into physiological saline (containing 10% ethanol) solutions of about 250-350 μCi/mL. 200 μL of the above solution was injected into the tail vein of female SD rats, and the rats were killed by cervical dislocation at five time points, 15, 30, 60, 120 and 240 min after the tail vein injection. The blood, brain, heart, liver, spleen, lung, kidney, muscle, bone, large intestine, small intestine, stomach and tail were collected, weighed and counted, and the count distribution of each tissue and organ was calculated (unit: % ID/g, the unit of large intestine, small intestine and stomach is % ID), and the data are the mean±standard deviation of three mice in each phase. At the same time, 200 μL of the above solution was diluted to 20 mL, which was used as the % ID without deducting the tail count.
Trimetazidine hydrochloride (TMZ) is a widely used anti-anginal drug and an inhibitor of fatty acid β-oxidation. […] Therefore, in order to investigate the sensitivity of radioactive ^99mTc complex 80 to fatty acid β-oxidation, we first performed a TMZ blocking experiment from the perspective of biodistribution. Among them, SD rats killed 60 min after injection were divided into two groups: one group of fasting female SD rats were injected with saline (0.2 mL) solution containing TMZ (40 mg/kg) and our radiotracer ^99mTc complex 80 (TMZ administration group), and the other group of fasting female SD rats were injected with radioactive ^99mTc complex 80 only (control group). The absolute myocardial uptake of the control SD rats and the TMZ-administered SD rats was compared 60 min after the tail vein injection of our radiotracer 80 (corresponding to the time point of the peak absolute myocardial uptake). […] The effect of TMZ administration on the metabolic fate of the radioactive ^99mTc complex 80 will also be discussed in Example 4 below.

[2] = In vivo biodistribution of radioactive ^99mTc complexes in female SD rats; design: species or system female Sprague-Dawley (SD) rats; details: for Biodistribution: Large Intestine / Biodistribution: Small Intestine / Biodistribution: Stomach: unit % ID
Experimental: as §1

[3] = female SD rats, 60 min, blocked by trimetazidine hydrochloride (TMZ 40 mg/kg)
[4] = female SD rats, 60 min, blocked by trimetazidine hydrochloride (TMZ 40 mg/kg), unit % ID

Biodistribution: Blood [1, 3]: 0.024 ± 0.003 ID %/g
Biodistribution: Bone [1, 3]: 0.07 ± 0.01 ID %/g
Biodistribution: Brain [1, 3]: 0.009 ± 0.005 ID %/g
Biodistribution: Heart [1, 3]: 1.01 ± 0.19 ID %/g
Biodistribution: Kidney [1, 3]: 0.97 ± 0.28 ID %/g
Biodistribution: Liver [1, 3]: 0.51 ± 0.16 ID %/g
Biodistribution: Lungs [1, 3]: 0.16 ± 0.02 ID %/g
Biodistribution: Muscle [1, 3]: 0.31 ± 0.06 ID %/g
Biodistribution: Spleen [1, 3]: 0.10 ± 0.04 ID %/g
Heart-to-Blood ratio [1, 3]: 41.25 ± 3.12
Heart-to-Liver ratio [1, 3]: 2.06 ± 0.41
Heart-to-Lungs ratio [1, 3]: 6.28 ± 0.29
Biodistribution: Large Intestine [1, 4]: 15.54 ± 6.05 % ID
Biodistribution: Small Intestine [1, 4]: 16.59 ± 4.32 % ID
Biodistribution: Stomach [1, 4]: 1.10 ± 0.19 % ID
Biodistribution: Blood ([2]; 15 min post-injection): 0.018 ± 0.003 ID %/g
Biodistribution: Bone ([2]; 15 min post-injection): 0.11 ± 0.05 ID %/g
Biodistribution: Brain ([2]; 15 min post-injection): 0.008 ± 0.004 ID %/g
Biodistribution: Heart ([2]; 15 min post-injection): 0.94 ± 0.16 ID %/g
Biodistribution: Kidney ([2]; 15 min post-injection): 2.43 ± 0.10 ID %/g
Biodistribution: Liver ([2]; 15 min post-injection): 0.49 ± 0.03 ID %/g
Biodistribution: Lungs ([2]; 15 min post-injection): 0.14 ± 0.04 ID %/g
Biodistribution: Muscle ([2]; 15 min post-injection): 0.14 ± 0.04 ID %/g
Biodistribution: Spleen ([2]; 15 min post-injection): 0.23 ± 0.06 ID %/g
Heart-to-Blood ratio ([2]; 15 min post-injection): 53.37 ± 6.93
Heart-to-Liver ratio ([2]; 15 min post-injection): 1.91 ± 0.40
Heart-to-Lungs ratio ([2]; 15 min post-injection): 7.04 ± 1.69
absolute myocardial uptake value ([2]; 15 min post-injection): 0.94±0.16 % ID/g
Biodistribution: Large Intestine ([2]; 15 min post-injection): 5.34 ± 1.37 % ID
Biodistribution: Small Intestine ([2]; 15 min post-injection): 8.49 ± 0.85 % ID
Biodistribution: Stomach ([2]; 15 min post-injection): 0.27 ± 0.09 % ID
Biodistribution: Blood ([2]; 30 min post-injection): 0.026 ± 0.003 ID %/g
Biodistribution: Bone ([2]; 30 min post-injection): 0.10 ± 0.01 ID %/g
Biodistribution: Brain ([2]; 30 min post-injection): 0.010 ± 0.003 ID %/g
Biodistribution: Heart ([2]; 30 min post-injection): 1.42 ± 0.32 ID %/g
Biodistribution: Kidney ([2]; 30 min post-injection): 4.66 ± 0.51 ID %/g
Biodistribution: Liver ([2]; 30 min post-injection): 1.01 ± 0.29 ID %/g
Biodistribution: Lungs ([2]; 30 min post-injection): 0.32 ± 0.04 ID %/g
Biodistribution: Muscle ([2]; 30 min post-injection): 0.22 ± 0.07 ID %/g
Biodistribution: Spleen ([2]; 30 min post-injection): 0.26 ± 0.06 ID %/g
Heart-to-Blood ratio ([2]; 30 min post-injection): 54.80±11.86
Heart-to-Liver ratio ([2]; 30 min post-injection): 1.48 ± 0.45
Heart-to-Lungs ratio ([2]; 30 min post-injection): 4.40 ± 0.64
absolute myocardial uptake value ([2]; 30 min post-injection): 1.42±0.32 % ID/g
Biodistribution: Large Intestine ([2]; 30 min post-injection): 6.69 ± 0.68 % ID
Biodistribution: Small Intestine ([2]; 30 min post-injection): 10.71 ± 1.89 % ID
Biodistribution: Stomach ([2]; 30 min post-injection): 0.53 ± 0.07 % ID
Biodistribution: Blood ([2]; 60 min post-injection): 0.013 ± 0.003 ID %/g
Biodistribution: Bone ([2]; 60 min post-injection): 0.064 ± 0.004 ID %/g
Biodistribution: Brain ([2]; 60 min post-injection): 0.011 ± 0.005 ID %/g
Biodistribution: Heart ([2]; 60 min post-injection): 2.06 ± 0.06 ID %/g
Biodistribution: Kidney ([2]; 60 min post-injection): 2.39 ± 0.58 ID %/g
Biodistribution: Liver ([2]; 60 min post-injection): 0.33 ± 0.09 ID %/g
Biodistribution: Lungs ([2]; 60 min post-injection): 0.22 ± 0.03 ID %/g
Biodistribution: Muscle ([2]; 60 min post-injection): 0.48 ± 0.06 ID %/g
Biodistribution: Spleen ([2]; 60 min post-injection): 0.16 ± 0.06 ID %/g
Heart-to-Blood ratio ([2]; 60 min post-injection): 164.01±43.51
Heart-to-Liver ratio ([2]; 60 min post-injection): 6.43±1.85
Heart-to-Lungs ratio ([2]; 60 min post-injection): 9.48±1.39
SMILES: COC(C)(C)C[N+]#[C][99Tc-5]([C]#[N+]CC(C)(C)OC)([C]#[N+]CC(C)(C)OC)([C]#[N+]CC(C)(C)OC)([C]#[N+]CC(C)(C)OC)[C]#[N+]CC(C)(C)OCCCCCSCCCCC(=O)O [^99mTc complex 80]
decrease of absolute myocardial uptake, TMZ-administered vs control SD rats ([1]; 60 min post-injection, TMZ 40 mg/kg, P<0.01): 51%
sensitivity to myocardial fatty acid β-oxidation ([1]; TMZ blocking, female SD rats): quite sensitive
